Assay results published in article PMC11002876, “KcsA-Kv1.x chimeras with complete ligand-binding sites provide improved predictivity for screening selective Kv1.x blockers” (The Journal of Biological Chemistry, 2024).
Read-outs that look alike come from different tables or passages of the source. Where a SMILES comes first, the peptide text is derived from it.

Experiments:
human Kv1.1 = settings: cited from earlier work; for IC50: human Kv1.1 channel blocking, patch-clamp, read-out: IC50, Kv1.x blocking (Kv1.1)
KcsA-Kv1.1 T+F chimera = molecular target: T1, KcsA-Kv1.1 T+F chimera (Streptomyces lividans, UniProt P0A334, A54E/A57S/G53E/G56E/I60S/L59F/L81M/P55A/Q58H/R52A/R64D/T61S/Y62I); assay: Phage-binding competition assay, KcsA-Kv1.1 T+F; design: species or system human Kv1.1 turret and filter in Streptomyces lividans KcsA
T1 sequence (P0A334 1-160 R52A/G53E/A54E/P55A/G56E/A57S/Q58H/L59F/I60S/T61S/Y62I/R64D/L81M): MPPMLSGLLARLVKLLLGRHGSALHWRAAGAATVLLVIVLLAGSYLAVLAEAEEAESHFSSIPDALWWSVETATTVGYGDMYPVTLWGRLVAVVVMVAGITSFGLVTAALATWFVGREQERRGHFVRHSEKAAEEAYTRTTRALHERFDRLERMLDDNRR
Experimental: Phage stock solutions were diluted to working concentration with phage resuspension buffer supplemented with 2 mM DDM. For protein immobilization, the following amounts were used in a final volume of 50 μl/well: wt KcsA, 0.1 μg; KcsA-Kv1.1 T-only, 0.005 μg; KcsA-Kv1.1 T+F, 0.02 μg; KcsA-Kv1.2 T-only, 0.01 μg; KcsA-Kv1.2 T+F, 0.1 μg; KcsA-Kv1.3 T-only, 0.01 μg; and KcsA-Kv1.3 T+F, 0.1 μg. Protein samples were diluted in 50 μl of storage buffer (20 mM Tris pH8.0, 300 mM KCl, 2 mM DDM) and were added to the designated wells of a Pierce Clear, 96-Well Nickel Coated Plate (15442, Thermo Fisher Scientific), then incubated for 1 h at room temperature on a horizontal shaker at 130 rpm. The plate was blocked for 1 h at room temperature with 180 μl/well TBS-BSA supplemented with 1 mM DDM. Following blocking, the wells were washed 4× with washing buffer (300 μl TBS-Tween, 0.1% v/v) using a Wellwash Versa microplate washer (Thermo Fisher Scientific); then 50 μl phage solution (in TBS-BSA-Tween, 0.1% v/v, 2 mM DDM) at determined phage concentration was added to the wells and incubated for 1 h at room temperature on a horizontal shaker. The plate was washed 4× with washing buffer, then 50 μl anti-M13 IgG HRP (MA5-36125, Invitrogen) diluted to 1:2500 in TBS-Tween (0.1% v/v) was added to the wells and incubated for 1 h at room temperature. The plate was washed again 4× with 300 μl/well washing buffer. Finally, 50 μl/well 1-Step Ultra TMB-ELISA solution (34028, Thermo Fisher Scientific) was added to the wells, and the developing signal was stopped with 50 μl 1M HCl after 5 to 10 min. The light absorbance signal was read at 450 nm with Byonoy absorbance 96 plate reader (Byonoy GmbH).
For protein immobilization, the following amounts were used in a final volume of 50 μl/well: KcsA-Kv1.1 T-only, 0.005 μg; KcsA-Kv1.1 T+F, 0.01 μg; KcsA-Kv1.2 T-only, 0.025 μg; KcsA-Kv1.2 T+F, 0.0125 μg; KcsA-Kv1.3 T-only, 0.01 μg; and KcsA-Kv1.3 T+F, 0.1 μg. Protein samples were diluted in storage buffer. Binding of given concentrations of relevant ligand-displaying phages quantified by light absorbance ([…]) were investigated in a similar manner as in phage ELISA-binding assay, while different concentrations of competing toxin test substances were applied simultaneously. The results were converted to percent inhibitions (percent displacement) of the indicator phage binding, and relative affinities of the tested toxins were assessed by plotting percent displacements against log concentrations and determining half maximal inhibitory concentrations (IC50) by sigmoidal curve fitting using “Sigmoidal dose-response (variable slope) with least squares method” algorithm in GraphPad Prism 8 using the following equation: Y=Bottom+Top−Bottom/1+10^(LogEC50−×)⋅HillSlope

[1] = displacement of ShK-phage, KcsA-Kv1.1 T+F 0.01 μg/well on nickel-coated plate, mean ± SD (n = 3), NQ = not quantifiable, read-out: IC50, T+F chimera (Kv1.1)

SMILES	inhibition of Kv1.1, in words (human Kv1.1)	IC50 (KcsA-Kv1.1 T+F chimera; [1])	IC50 (human Kv1.1)	IC50 (KcsA-Kv1.1 T+F chimera; ShK-phage competition, T+F KcsA-Kv1.1, value given in figure, sigmoidal fit to means of three replicates, read-out: IC50 (Fig. 8F))
CC[C@H](C)[C@@H]1NC(=O)CNC(=O)[C@H](Cc2ccccc2)NC(=O)[C@H](CCC(N)=O)NC(=O)[C@H](C)NC(=O)[C@H](CCCCN)NC(=O)[C@@H]2CSSC[C@@H](C(=O)N[C@@H](Cc3ccc(O)cc3)C(=O)N3CCC[C@H]3C(=O)N[C@@H](Cc3c[nH]cn3)C(=O)O)NC(=O)[C@H](CCCCN)NC(=O)[C@@H]3CSSC[C@H](NC(=O)[C@H](CCC(N)=O)NC(=O)[C@H](CCCCN)NC(=O)[C@@H]4CCCN4C(=O)[C@H](CO)NC(=O)[C@H]([C@@H](C)O)NC(=O)[C@@H](NC(=O)[C@H](CCCCN)NC(=O)[C@@H](NC(=O)[C@H](CC(=O)O)NC(=O)[C@@H](NC(=O)[C@@H](NC(=O)[C@@H](N)[C@@H](C)O)C(C)C)[C@@H](C)CC)C(C)C)CSSC[C@H](NC(=O)[C@H](CCCCN)NC(=O)[C@H](C)NC(=O)CNC(=O)[C@H](C)NC(=O)[C@H](CCCNC(=N)N)NC1=O)C(=O)N[C@@H](CCSC)C(=O)N[C@@H](CC(N)=O)C(=O)NCC(=O)N[C@@H](CCCCN)C(=O)N3)C(=O)N[C@@H](CC(C)C)C(=O)N1CCC[C@H]1C(=O)N1CCC[C@H]1C(=O)N2 [HgTx1, Hongotoxin-1] (HELM PEPTIDE1{T.V.I.D.V.K.C.T.S.P.K.Q.C.L.P.P.C.K.A.Q.F.G.I.R.A.G.A.K.C.M.N.G.K.C.K.C.Y.P.H}$PEPTIDE1,PEPTIDE1,7:R3-29:R3|PEPTIDE1,PEPTIDE1,13:R3-34:R3|PEPTIDE1,PEPTIDE1,17:R3-36:R3$$$V2.0; N-terminus and C-terminus assumed)	equivalent high potency	–	–	–
CC[C@H](C)[C@H](NC(=O)[C@H](CCC(=O)O)NC(=O)[C@@H](NC(=O)CN)C(C)C)C(=O)N[C@@H](CC(N)=O)C(=O)N[C@H](C(=O)N[C@@H](CCCCN)C(=O)N[C@H]1CSSC[C@@H]2NC(=O)[C@H](CCCCN)NC(=O)CNC(=O)[C@H](Cc3ccccc3)NC(=O)[C@H](CCCNC(=N)N)NC(=O)[C@H](CCSC)NC(=O)CNC(=O)[C@H](C)NC(=O)[C@H](CC(=O)O)NC(=O)[C@H](CCCCN)NC(=O)[C@@H]3CSSC[C@@H](C(=O)N[C@H](C(=O)N4CCC[C@H]4C(=O)N[C@@H](CCCCN)C(=O)O)[C@@H](C)O)NC(=O)[C@H](Cc4c[nH]cn4)NC(=O)[C@H](CSSC[C@H](NC(=O)[C@H](CCC(N)=O)NC(=O)[C@@H]4CCCN4C(=O)[C@H](CO)NC(=O)CNC(=O)[C@H](CO)NC1=O)C(=O)N[C@@H](CC(C)C)C(=O)N[C@@H](CCCCN)C(=O)N1CCC[C@H]1C(=O)N3)NC(=O)[C@H](CCCCN)NC(=O)[C@H](CCCNC(=N)N)NC(=O)[C@H](CC(N)=O)NC(=O)[C@H](CCSC)NC2=O)C(C)C [KTX1, Kaliotoxin-1]	–	1.49 nM	1.1 to 41 nM	–
CC[C@H](C)[C@@H]1NC(=O)[C@@H]2CSSC[C@H](NC(=O)[C@H](CO)NC(=O)[C@@H](N)C(C)C)C(=O)N[C@@H]([C@@H](C)O)C(=O)NCC(=O)N[C@@H](CO)C(=O)N[C@@H](CCCCN)C(=O)N[C@@H](CC(=O)O)C(=O)N[C@@H](CSSC[C@@H](C(=O)N[C@@H](CCCCN)C(=O)N[C@H]3CSSC[C@@H](C(N)=O)NC(=O)CNC(=O)[C@H](Cc4ccc(O)cc4)NC3=O)NC(=O)[C@H](CO)NC(=O)[C@H](CCCCN)NC(=O)[C@H](CC(N)=O)NC1=O)C(=O)N[C@@H](Cc1ccc(O)cc1)C(=O)N[C@@H](C)C(=O)N1CCC[C@H]1C(=O)N[C@H]1CSSC[C@H](NC(=O)CNC(=O)[C@H]([C@@H](C)O)NC(=O)[C@H](CCC(N)=O)NC(=O)[C@H](CCCCN)NC(=O)[C@H](CCCNC(=N)N)NC1=O)C(=O)N1CCC[C@H]1C(=O)N[C@@H](CC(N)=O)C(=O)N[C@@H](C)C(=O)N[C@@H](CCCCN)C(=O)N2 [MTX, Maurotoxin] (HELM PEPTIDE1{V.S.C.T.G.S.K.D.C.Y.A.P.C.R.K.Q.T.G.C.P.N.A.K.C.I.N.K.S.C.K.C.Y.G.C.[am]}$PEPTIDE1,PEPTIDE1,3:R3-24:R3|PEPTIDE1,PEPTIDE1,9:R3-29:R3|PEPTIDE1,PEPTIDE1,13:R3-19:R3|PEPTIDE1,PEPTIDE1,31:R3-34:R3$$$V2.0; N-terminus and C-terminus assumed)	–	> 1000 nM	> 100 nM	–
CC[C@H](C)[C@@H]1NC(=O)[C@@H](NC(=O)[C@H](CO)NC(=O)[C@@H](N)CCCNC(=N)N)CSSC[C@@H](C(=O)O)NC(=O)[C@H]([C@@H](C)O)NC(=O)CNC(=O)[C@@H]2CSSC[C@@H]3NC(=O)[C@H](CCC(N)=O)NC(=O)[C@H](Cc4ccccc4)NC(=O)[C@H](C)NC(=O)[C@H]([C@@H](C)O)NC(=O)[C@H](CSSC[C@H](NC(=O)[C@H](Cc4ccccc4)NC(=O)[C@H](CO)NC(=O)[C@H](CC(C)C)NC(=O)[C@H](CCCNC(=N)N)NC(=O)[C@H](Cc4ccc(O)cc4)NC(=O)[C@H](CCCCN)NC(=O)[C@H](CCSC)NC(=O)[C@H](CO)NC(=O)[C@H](Cc4c[nH]cn4)NC(=O)[C@H](CCCCN)NC3=O)C(=O)N[C@@H](CCCNC(=N)N)C(=O)N[C@@H](CCCCN)C(=O)N[C@@H]([C@@H](C)O)C(=O)N2)NC(=O)[C@H](CCCNC(=N)N)NC(=O)[C@H](CO)NC(=O)[C@H](CCCCN)NC(=O)[C@@H]2CCCN2C(=O)[C@H]([C@@H](C)CC)NC(=O)[C@H]([C@@H](C)O)NC(=O)[C@H](CC(=O)O)NC1=O [ShK, Stichodactyla toxin]	–	–	–	0.271 nM
